In patent US11845752B2, “Substituted imidazo[1,5-a]pyrazines for the treatment of hepatitis B” (ALIGOS THERAPEUTICS, INC., priority 2020, dated 2023):
Like-named read-outs stand apart in the source and are kept apart here.

System: HBV
Experiment: HBV-DNA antiviral assay using HepG2.117 cells (intracellular HBV DNA by qPCR)
Type: cell-based, HBV genotype D
Conditions: HBV DNA inhibition, 3 days incubation, read-out: EC50
Method in brief: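 HepG2.117 cells (stably integrated genotype D HBV, Tet-off) seeded without doxycycline to induce pgRNA, then treated next day with 9 concentrations (4-fold dilutions, 2% DMSO) for 3 days at 37 °C. Intracellular HBV DNA quantified by qPCR against standard curve, viability by ATP content; inhibition relative to DMSO control, EC50/EC90/CC50 by non-linear regression.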

[1] = Hepatitis B virus, HepG2.117, 72 h

Structure (SMILES) | EC50 [1] | EC50
CC1Cn2c(c(C(=O)NCc3ccccc3-c3cn(C)cn3)n(-c3ccc(OC4CC4)cc3)c2=O)CN1C(=O)c1ccc(Br)c(Cl)c1 (single isomer, unassigned) [Compound 18a, 7-(4-bromo-3-chloro-benzoyl)-2-[4-(cyclopropoxy)phenyl]-6-methyl-N-[[2-(1-methylimidazol-4-yl)phenyl]methyl]-3-oxo-6,8-dihydro-5H-imidazo[1,5-a]pyrazine-1-carboxamide] | 50 to 500 nM | 
CC1Cn2c(c(C(=O)NCc3ccccc3-c3cn(C)cn3)n(-c3ccc(OC4CC4)cc3)c2=O)CN1C(=O)c1ccc(Br)c(Cl)c1 (single isomer, unassigned) [Compound 18b, 7-(4-bromo-3-chloro-benzoyl)-2-[4-(cyclopropoxy)phenyl]-6-methyl-N-[[2-(1-methylimidazol-4-yl)phenyl]methyl]-3-oxo-6,8-dihydro-5H-imidazo[1,5-a]pyrazine-1-carboxamide] |  | < 50 nM
CC1Cn2c(c(C(=O)NCc3ccccc3-n3cc(N)cn3)n(-c3ccc(OC4CC4)cc3)c2=O)CN1C(=O)c1ccc(Br)c(Cl)c1 (single isomer, unassigned) [Compound 19a] |  | 500 to 5000 nM
CC1Cn2c(c(C(=O)NCc3ccccc3-n3cc(N)cn3)n(-c3ccc(OC4CC4)cc3)c2=O)CN1C(=O)c1ccc(Br)c(Cl)c1 (single isomer, unassigned) [Compound 19b] |  | 50 to 500 nM
C#Cc1cc(C(=O)N2Cc3c(C(=O)NCc4ccccc4-c4ccncn4)n(-c4ccc(OC5CC5)cc4)c(=O)n3CC2C)ccc1Br (single isomer, unassigned) [Compound 20a] |  | 500 to 5000 nM
C#Cc1cc(C(=O)N2Cc3c(C(=O)NCc4ccccc4-c4ccncn4)n(-c4ccc(OC5CC5)cc4)c(=O)n3CC2C)ccc1Br (single isomer, unassigned) [Compound 20b] |  | 50 to 500 nM
CC1Cn2c(c(C(=O)NCc3ccccc3-c3ncccn3)n(-c3ccc(N4CCN(C)CC4)cc3)c2=O)CN1C(=O)c1ccc(Br)c(Cl)c1 (single isomer, unassigned) [Compound 21a] | < 50 nM | 
CC1Cn2c(c(C(=O)NCc3ccccc3-c3ncccn3)n(-c3ccc(N4CCN(C)CC4)cc3)c2=O)CN1C(=O)c1ccc(Br)c(Cl)c1 (single isomer, unassigned) [Compound 21b] |  | 50 to 500 nM
CC1Cn2c(c(C(=O)NCc3ccccc3-c3ccn(C)n3)n(-c3ccc(OC4CC4)cc3)c2=O)CN1C(=O)c1ccc(Br)c(Cl)c1 (single isomer, unassigned) [Compound 22a] | 50 to 500 nM | 
CC1Cn2c(c(C(=O)NCc3ccccc3-c3ccn(C)n3)n(-c3ccc(OC4CC4)cc3)c2=O)CN1C(=O)c1ccc(Br)c(Cl)c1 (single isomer, unassigned) [Compound 22b] |  | < 50 nM
CC1Cn2c(c(C(=O)NCc3ccccc3-c3cccc(N)n3)n(-c3ccc(OC4CC4)cc3)c2=O)CN1C(=O)c1ccc(Br)c(Cl)c1 (single isomer, unassigned) [Compound 23a] | 50 to 500 nM | 
CC1Cn2c(c(C(=O)NCc3ccccc3-c3cccc(N)n3)n(-c3ccc(OC4CC4)cc3)c2=O)CN1C(=O)c1ccc(Br)c(Cl)c1 (single isomer, unassigned) [Compound 23b] |  | < 50 nM
CC1Cn2c(c(C(=O)NCc3c(F)cccc3-n3cccn3)n(-c3ccc(OC4CC4)cc3)c2=O)CN1C(=O)c1ccc(Br)c(Cl)c1 (single isomer, unassigned) [Compound 24a] | 50 to 500 nM | 
CC1Cn2c(c(C(=O)NCc3c(F)cccc3-n3cccn3)n(-c3ccc(OC4CC4)cc3)c2=O)CN1C(=O)c1ccc(Br)c(Cl)c1 (single isomer, unassigned) [Compound 24b] |  | < 50 nM
CC1Cn2c(c(C(=O)NCc3c(F)cccc3-n3cccn3)n(-c3ccc(OC4CC4)cc3)c2=O)CN1C(=O)c1ccc(Br)c(C(F)(F)F)c1 (single isomer, unassigned) [Compound 25a] | 50 to 500 nM | 
CC1Cn2c(c(C(=O)NCc3c(F)cccc3-n3cccn3)n(-c3ccc(OC4CC4)cc3)c2=O)CN1C(=O)c1ccc(Br)c(C(F)(F)F)c1 (single isomer, unassigned) [Compound 25b] |  | < 50 nM
CNc1ccnc(-c2ccccc2CNC(=O)c2c3n(c(=O)n2-c2ccc(OC4CC4)cc2)CC(C)N(C(=O)c2ccc(Br)c(Cl)c2)C3)n1 (single isomer, unassigned) [Compound 26a] | < 50 nM | 
CC1Cn2c(c(C(=O)NCc3ccccc3-c3cccc(N)n3)n(-c3ccc(OC4CC4)cc3)c2=O)CN1C(=O)c1ccc(Br)c(C(F)(F)F)c1 (single isomer, unassigned) [Compound 27a] | < 50 nM | 
CC1Cn2c(c(C(=O)NCc3ccccc3-c3cccc(N)n3)n(-c3ccc(OC4CC4)cc3)c2=O)CN1C(=O)c1ccc(Br)c(C(F)(F)F)c1 (single isomer, unassigned) [Compound 27b] |  | < 50 nM
CC1Cn2c(c(C(=O)NCc3ccccc3-c3nccc(N)n3)n(-c3ccc(OC4CC4)cc3)c2=O)CN1C(=O)c1ccc(Br)c(C(F)(F)F)c1 (single isomer, unassigned) [Compound 29a] | < 50 nM | 
CC1Cn2c(c(C(=O)NCc3ccccc3-c3nccc(N)n3)n(-c3ccc(OC4CC4)cc3)c2=O)CN1C(=O)c1ccc(Br)c(C(F)(F)F)c1 (single isomer, unassigned) [Compound 29b] |  | < 50 nM

Structure (SMILES) | EC50 [1] | EC50
CC1Cn2c(c(C(=O)NCc3ccccc3-c3nccc(N)n3)n(-c3ccc(OC4CC4)cc3)c2=O)CN1C(=O)c1ccc(Br)c(Cl)c1 (single isomer, unassigned) [Compound 30a] | 50 to 500 nM | 
CC1Cn2c(c(C(=O)NCc3ccccc3-c3nccc(N)n3)n(-c3ccc(OC4CC4)cc3)c2=O)CN1C(=O)c1ccc(Br)c(Cl)c1 (single isomer, unassigned) [Compound 30b] |  | < 50 nM
CC1Cn2c(c(C(=O)NCc3c(F)cccc3-c3nccc(N)n3)n(-c3ccc(OC4CC4)cc3)c2=O)CN1C(=O)c1ccc(Br)c(Cl)c1 (single isomer, unassigned) [Compound 31a] | 50 to 500 nM | 
CC1Cn2c(c(C(=O)NCc3c(F)cccc3-c3nccc(N)n3)n(-c3ccc(OC4CC4)cc3)c2=O)CN1C(=O)c1ccc(Br)c(Cl)c1 (single isomer, unassigned) [Compound 31b] |  | < 50 nM
CC1Cn2c(c(C(=O)NCc3c(F)cccc3-c3nccc(N)n3)n(-c3ccc(OC4CC4)cc3)c2=O)CN1C(=O)c1ccc(Br)c(C(F)(F)F)c1 (single isomer, unassigned) [Compound 32a] | < 50 nM | 
CC1Cn2c(c(C(=O)NCc3c(F)cccc3-c3nccc(N)n3)n(-c3ccc(OC4CC4)cc3)c2=O)CN1C(=O)c1ccc(Br)c(C(F)(F)F)c1 (single isomer, unassigned) [Compound 32b] |  | < 50 nM
Cc1nnc(-c2cccc(F)c2CNC(=O)c2c3n(c(=O)n2-c2ccc(OC4CC4)cc2)CC(C)N(C(=O)c2ccc(Br)c(C(F)(F)F)c2)C3)o1 (single isomer, unassigned) [Compound 33a] | 50 to 500 nM | 
Cc1nnc(-c2cccc(F)c2CNC(=O)c2c3n(c(=O)n2-c2ccc(OC4CC4)cc2)CC(C)N(C(=O)c2ccc(Br)c(C(F)(F)F)c2)C3)o1 (single isomer, unassigned) [Compound 33b] |  | < 50 nM
CC1Cn2c(c(C(=O)NCc3ccccc3-c3ccccn3)n(-c3ccc(OC4CC4)cc3)c2=O)CN1C(=O)c1ccc(Br)c(C(F)(F)F)c1 (single isomer, unassigned) [Compound 34a] | < 50 nM | 
CC1Cn2c(c(C(=O)NCc3c(F)cccc3-c3cccc(N)n3)n(-c3ccc(OC4CC4)cc3)c2=O)CN1C(=O)c1ccc(Br)c(Cl)c1 (single isomer, unassigned) [Compound 35a] | 50 to 500 nM | 
CC1Cn2c(c(C(=O)NCc3c(F)cccc3-c3cccc(N)n3)n(-c3ccc(OC4CC4)cc3)c2=O)CN1C(=O)c1ccc(Br)c(Cl)c1 (single isomer, unassigned) [Compound 35b] |  | < 50 nM
CC1Cn2c(c(C(=O)NCc3c(F)cccc3-c3cccc(N)n3)n(-c3ccc(OC4CC4)cc3)c2=O)CN1C(=O)c1ccc(Br)c(C(F)(F)F)c1 (single isomer, unassigned) [Compound 36a] | < 50 nM | 
CC1Cn2c(c(C(=O)NCc3c(F)cccc3-c3cccc(N)n3)n(-c3ccc(OC4CC4)cc3)c2=O)CN1C(=O)c1ccc(Br)c(C(F)(F)F)c1 (single isomer, unassigned) [Compound 36b] |  | < 50 nM
COc1nccc(-c2ccccc2CNC(=O)c2c3n(c(=O)n2-c2ccc(OC4CC4)cc2)CC(C)N(C(=O)c2ccc(Br)c(Cl)c2)C3)n1 (single isomer, unassigned) [Compound 37a] | 50 to 500 nM | 
COc1nccc(-c2ccccc2CNC(=O)c2c3n(c(=O)n2-c2ccc(OC4CC4)cc2)CC(C)N(C(=O)c2ccc(Br)c(Cl)c2)C3)n1 (single isomer, unassigned) [Compound 37b] |  | < 50 nM
COc1nccc(-c2ccccc2CNC(=O)c2c3n(c(=O)n2-c2ccc(OC4CC4)cc2)CC(C)N(C(=O)c2ccc(Br)c(C(F)(F)F)c2)C3)n1 (single isomer, unassigned) [Compound 38a] | < 50 nM | 
COc1nccc(-c2ccccc2CNC(=O)c2c3n(c(=O)n2-c2ccc(OC4CC4)cc2)CC(C)N(C(=O)c2ccc(Br)c(C(F)(F)F)c2)C3)n1 (single isomer, unassigned) [Compound 38b] |  | < 50 nM
CNc1cc(-c2ccccc2CNC(=O)c2c3n(c(=O)n2-c2ccc(OC4CC4)cc2)CC(C)N(C(=O)c2ccc(Br)c(C(F)(F)F)c2)C3)ncn1 (single isomer, unassigned) [Compound 40a] | < 50 nM | 
CNc1cc(-c2ccccc2CNC(=O)c2c3n(c(=O)n2-c2ccc(OC4CC4)cc2)CC(C)N(C(=O)c2ccc(Br)c(C(F)(F)F)c2)C3)ncn1 (single isomer, unassigned) [Compound 40b] |  | < 50 nM
CC1Cn2c(c(C(=O)NCc3ccccc3-c3cc(N)cnn3)n(-c3ccc(OC4CC4)cc3)c2=O)CN1C(=O)c1ccc(Br)c(Cl)c1 (single isomer, unassigned) [Compound 42a] |  | 500 to 5000 nM
